Source: PubChem BioAssay (NCI)
“And” between values parts separate entries of the source, which are not always exact repeats. Identical values can stand only once.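 Cultured in 96-well plates, cells were exposed to test compound for 48 hours across five concentrations. The concentration for 50% growth inhibition is given as GI50. The concentration for full growth arrest is given as TGI.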

Tests used:
Experiment in all cases: inhibition of tumour cell growth, NCI panel, 48 h
ACHN renal = tested on: ACHN renal
K-562 leukemia = tested on: K-562 leukemia
MDA-MB-231 breast = tested on: MDA-MB-231 breast
NCI-H522 lung = tested on: NCI-H522 lung
RXF 393 renal = tested on: RXF 393 renal
SK-MEL-5 melanoma = tested on: SK-MEL-5 melanoma
SNB-78 CNS = tested on: SNB-78 CNS
UACC-62 melanoma = tested on: UACC-62 melanoma
UO-31 renal = tested on: UO-31 renal
LXFL 529 NSCLC = tested on: LXFL 529 NSCLC

| Structure (SMILES) | TGI (ACHN renal) | GI50 (K-562 leukemia) | TGI (K-562 leukemia) | TGI (MDA-MB-231 breast) | GI50 (NCI-H522 lung) | TGI (NCI-H522 lung) | GI50 (RXF 393 renal) | TGI (RXF 393 renal) | GI50 (SK-MEL-5 melanoma) | TGI (SK-MEL-5 melanoma) | TGI (SNB-78 CNS) | GI50 (UACC-62 melanoma) | TGI (UACC-62 melanoma) | TGI (UO-31 renal) | GI50 (ACHN renal) | GI50 (MDA-MB-231 breast) | GI50 (UO-31 renal) | TGI (LXFL 529 NSCLC) |
| --- | --- | --- | --- | --- | --- | --- | --- | --- | --- | --- | --- | --- | --- | --- | --- | --- | --- | --- |
| CC1=CCCC2C1(C)CCC(C)C2(C)Cc1cc(O)ccc1O (configuration not stated) | 25.6 µM | 5.44 µM | 40.8 µM and 19.9 µM | 21.5 µM | 3.65 µM | 12.7 µM and 8.37 µM | 3.74 µM | 20.4 µM and 10.9 µM | 10.6 µM | 27.7 µM and 24.9 µM | 11 µM | 13 µM | 28.7 µM and 24.5 µM | 19.1 µM and 15.4 µM | – | – | – | – |
| Cc1nc(-c2nc(-c3ccc(OC(F)(F)F)cc3)no2)nn1Cc1cccc(N2CCC(S(C)(=O)=O)CC2)c1 | > 65 µM | < 0.01 µM | > 100 µM | > 100 µM | > 100 µM | > 100 µM | 5.88 µM | 44.4 µM | < 0.01 µM | 1.06 µM | – | 3.51 µM | > 100 µM | > 100 µM | > 26.7 µM | 17.6 µM | 1.46 µM | – |
| N#Cc1c(N2CCOCC2)nc(=S)[nH]c1-c1ccccc1 | > 100 µM | 52 µM | > 100 µM | > 100 µM | 13.8 µM | > 100 µM | 21 µM | > 100 µM | 9.36 µM | > 100 µM | – | 4.95 µM | > 100 µM | > 100 µM | 14.1 µM | 7.86 µM | 4.57 µM | – |
| CC1(Br)CC2OC3(Br)C=CC(C)(O)C2(CC1=O)C3(C)C (configuration not stated) | > 100 µM | – | > 29.8 µM | – | – | > 100 µM | – | – | – | > 100 µM | > 100 µM | – | > 100 µM | > 100 µM | – | – | – | > 100 µM |
| CCCNCC(=O)O[C@]1(CC)C(=O)OCc2c1cc1n(c2=O)Cc2cc3ccccc3nc2-1 | 0.233 µM | – | > 100 µM | – | – | 1.63 µM | – | 0.39 µM | – | 0.304 µM | – | – | 1.12 µM | – | – | – | – | 67.6 µM |
| C[C@@H](NC(=O)/C(C#N)=C/c1ccc([N+](=O)[O-])cc1)c1ccccc1 | 3.29 µM | 2.75 µM | 14 µM | 5.23 µM | 1.71 µM | 3.47 µM | 1.62 µM | 3.04 µM | 1.94 µM | 3.95 µM | – | 1.8 µM | 3.71 µM | 1.06 µM | 1.76 µM | 2.3 µM | 0.559 µM | – |
| CN(C)CCCCC(C(=O)CBr)(c1ccccc1)c1ccccc1 | 3.03 µM | 2.08 µM | 5.48 µM | 4.49 µM | 1.25 µM | 3.4 µM | 1.74 µM | 4.06 µM | 2.53 µM | 8.68 µM | – | 1.64 µM | 4.14 µM | 2.79 µM | 1.48 µM | 1.89 µM | 1.27 µM | – |
| C=C1C(=O)O[C@H]2[C@H]1CC/C(C=Nc1c(N)cc(C(F)(F)F)cc1C(F)(F)F)=C\CC[C@@]1(C)O[C@@H]21 | 2.68 µM | 1.24 µM | 9.53 µM | 3.79 µM | 1.66 µM | 4.13 µM | 1.24 µM | 2.74 µM | 1.35 µM | 2.67 µM | – | 1.28 µM | 2.99 µM | 2.38 µM | 1.26 µM | 1.38 µM | 1.07 µM | – |
| NC(N)=NC(N)=Nc1cnccn1 | > 100 µM | – | > 100 µM | > 100 µM | – | > 100 µM | – | > 100 µM | – | > 100 µM | – | – | > 100 µM | > 100 µM | – | – | – | – |
